From patent publication US20220055989A1, “CONDENSED PYRROLES AS NOVEL BROMODOMAIN INHIBITORS” (ALBERT LUDWING UNIVERSITÄT FREIBURG, priority 2018, published 2022)

Legend:
TAF1L(2) = molecular target: T1, TAF1L(2) (Homo sapiens, UniProt Q8IZX4); test: Bromodomain assay % Ctrl determination TAF1L(2); settings: lower numbers indicate a stronger binding
T1 construct: FALZ, PBRM1-BD2, BPRM1-BDS, TAF1-BD2, TAF1L-BD2; host or cells: T7 phage grown in E. coli host derived from BL21
Experimental: (§1) Compounds that bind the bromodomain prevent its binding to the immobilized ligand thus reducing the amount of protein captured. […] Hits are identified by measuring the amount of bromodomain captured in test versus control samples. Bromodomain assays for % Ctrl determination: T7 phage strains displaying bromodomains were grown in parallel in 24-well blocks in an E. coli host derived from the BL21 strain. E. coli were grown to log-phase and infected with T7 phage from a frozen stock (multiplicity of infection=0.4) and incubated with shaking at 32° C. until lysis (90-150 minutes). The lysates were centrifuged (5,000×g) and filtered (0.2 μm) to remove cell debris. […] The liganded beads were blocked with excess biotin and washed with blocking buffer (SeaBlock (Pierce), 1% BSA, 0.05% Tween 20, 1 mM DTT) to remove unbound ligand and to reduce non-specific phage binding. […] Test compounds were prepared as 1000× stocks in 100% DMSO and subsequently diluted 1:25 in monoethylene glycol (MEG). The compounds were then diluted directly into the assays such that the final concentrations of DMSO and MEG were 0.1% and 2.4%, respectively. All reactions were performed in polypropylene 384-well plates in a final volume of 0.02 ml. […] The bromodomain concentration in the eluates was measured by qPCR. […]

BRD1 = molecular target: T2, BRD1 (Homo sapiens, UniProt O95696); test: Bromodomain assay % Ctrl determination BRD1; settings: lower numbers indicate a stronger binding
T2 construct: T7 phage strains displaying bromodomains were grown in parallel; made in house; host or cells: T7 phage grown in an E. coli host derived from the BL21 strain
Experimental: as §1

TRIM24(PHD, Bromo) = molecular target: T3, TRIM24(PHD, Bromo) (Homo sapiens, UniProt O15164); test: Bromodomain assay % Ctrl determination TRIM24(PHD, Bromo); settings: lower numbers indicate a stronger binding
T3 construct: T7 phage strains displaying bromodomains were grown in parallel; host or cells: T7 phage grown in E. coli host derived from BL21
Experimental: as §1

BRPF3 = molecular target: T4, BRPF3 (Homo sapiens, UniProt Q9ULD4); test: Bromodomain assay % Ctrl determination BRPF3; settings: lower numbers indicate a stronger binding
T4 construct: T7 phage strains displaying bromodomains were grown; host or cells: T7 phage in E. coli derived from BL21
Experimental: as §1

BAZ2B [1] = molecular target: T5, BAZ2B (Homo sapiens, UniProt Q9UIF8); test: Bromodomain assay % Ctrl determination BAZ2B; settings: lower numbers indicate a stronger binding
T5 construct: T7 phage strains displaying bromodomains were grown in parallel; made in house; host or cells: T7 phage grown in an E. coli host derived from the BL21 strain
Experimental: as §1

GCN5L2 = molecular target: T6, GCN5L2 (Homo sapiens, UniProt Q92830); test: BROMOscan Kd determination GCN5L2; format: binding
T6 construct: T7 phage strains displaying bromodomains were grown in parallel; host or cells: T7 phage grown in E. coli host derived from BL21
Experimental: (§2) Bromodomain profiling was carried out on the basis of BROMOscan™. This platform accounted for the indirect determination of the dissociation constants between 19 bromodomains and the compound of formula (13), by binding competition against a reference immobilized ligand. Compounds that bind the bromodomain prevent its binding to the immobilized ligand thus reducing the amount of protein captured. […] Hits are identified by measuring the amount of bromodomain captured in test versus control samples. Bromodomain assays for Kd determination: T7 phage strains displaying bromodomains were grown in parallel in 24-well blocks in an E. coli host derived from the BL21 strain. E. coli were grown to log-phase and infected with T7 phage from a frozen stock (multiplicity of infection=0.4) and incubated with shaking at 32° C. until lysis (90-150 minutes). The lysates were centrifuged (5,000×g) and filtered (0.2 μm) to remove cell debris. […] Kds were determined using an 11-point 3-fold compound dilution series with one DMSO control point. […] The bromodomain concentration in the eluates was measured by qPCR. […] Most Kds were determined using a compound top concentration=10,000 nM. […] Binding Constants (Kds): Binding constants (Kds) were calculated with a standard dose-response curve using the Hill equation: The Hill Slope was set to −1. […]

BAZ2B [2] = molecular target: T5, BAZ2B; test: BROMOscan Kd determination BAZ2B; format: binding
Experimental: as §2

SMARCA4 = molecular target: T7, SMARCA4 (Homo sapiens, UniProt P51532); test: BROMOscan Kd determination SMARCA4; format: binding
T7 construct: T7 phage strains displaying bromodomains were grown in parallel; host or cells: T7 phage grown in E. coli host derived from BL21
Experimental: as §2

BRD4(1, 2) = molecular target: T8, BRD4(1, 2) (Homo sapiens, UniProt O60885); test: BROMOscan Kd determination BRD4(1, 2); format: binding
T8 construct: T7 phage strains displaying bromodomains were grown in parallel; made in house; host or cells: T7 phage grown in an E. coli host derived from the BL21 strain
Experimental: as §2

BRDT(1, 2) = molecular target: T9, BRDT(1, 2) (Homo sapiens, UniProt Q58F21); test: BROMOscan Kd determination BRDT(1, 2); format: binding
T9 construct: T7 phage strains displaying bromodomains were grown; host or cells: T7 phage in E. coli derived from BL21
Experimental: as §2

BRD4(short-iso.) = molecular target: T10, BRD4(short-iso.) (Homo sapiens, UniProt O60885); test: BROMOscan Kd determination BRD4(short-iso.); format: binding
T10 construct: host or cells: T7 phage in E. coli derived from BL21
Experimental: as §2

T5 sequence (Q9UIF8 2060-2164 limits assumed): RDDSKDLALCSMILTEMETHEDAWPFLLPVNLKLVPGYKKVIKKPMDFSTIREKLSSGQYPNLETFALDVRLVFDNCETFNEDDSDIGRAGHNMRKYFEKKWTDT
T1 sequence (Q8IZX4 1517-1626 limits assumed): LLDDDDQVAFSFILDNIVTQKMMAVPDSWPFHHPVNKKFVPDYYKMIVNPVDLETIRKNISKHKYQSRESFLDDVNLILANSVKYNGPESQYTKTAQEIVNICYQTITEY
T4 sequence (Q9ULD4 589-693 limits assumed): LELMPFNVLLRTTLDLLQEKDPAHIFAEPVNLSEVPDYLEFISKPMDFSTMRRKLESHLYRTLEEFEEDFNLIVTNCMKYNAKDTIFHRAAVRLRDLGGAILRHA
T3 sequence (O15164 824-1006 limits assumed): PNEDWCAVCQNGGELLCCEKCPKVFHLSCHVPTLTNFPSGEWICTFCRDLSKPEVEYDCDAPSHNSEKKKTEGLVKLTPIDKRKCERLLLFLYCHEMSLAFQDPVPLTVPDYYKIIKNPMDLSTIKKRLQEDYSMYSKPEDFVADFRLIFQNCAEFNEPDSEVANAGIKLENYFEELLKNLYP
T7 sequence (P51532 1453-1564 limits assumed): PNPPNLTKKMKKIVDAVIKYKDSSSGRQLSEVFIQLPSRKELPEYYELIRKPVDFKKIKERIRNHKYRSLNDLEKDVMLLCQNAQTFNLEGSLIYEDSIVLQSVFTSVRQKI
T2 sequence (O95696 562-666 limits assumed): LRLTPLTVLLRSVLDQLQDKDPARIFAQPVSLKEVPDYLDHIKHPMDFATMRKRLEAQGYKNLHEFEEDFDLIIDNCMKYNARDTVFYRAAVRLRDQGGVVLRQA
T6 sequence (Q92830 728-832 limits assumed): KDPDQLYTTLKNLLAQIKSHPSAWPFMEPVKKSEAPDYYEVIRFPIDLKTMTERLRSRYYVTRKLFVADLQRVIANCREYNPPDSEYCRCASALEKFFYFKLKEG

## COc1ccc(S(=O)(=O)N2CCOCC2)cc1NC(=O)c1[nH]c(C)c2c1CCCCC2=O [Compound 13, N-(2-methoxy-5-(morpholinosulfonyl)phenyl)-3-methyl-4-oxo-2,4,5,6,7,8-hexahydrocyclohepta[c]pyrrole-1-carboxamide]
TAF1L(2)
  % Ctrl @ 10 000 nM TAF1L(2): 40 % Ctrl
BRD1
  % Ctrl @ 10 000 nM BRD1: 26 % Ctrl
TRIM24(PHD, Bromo)
  % Ctrl @ 10 000 nM TRIM24(PHD, Bromo): 82 % Ctrl
BRPF3
  % Ctrl @ 10 000 nM BRPF3: 35 % Ctrl
BAZ2B [1]
  % Ctrl @ 10 000 nM BAZ2B: 6.8 % Ctrl

## Cc1[nH]c(-c2cc(N)ccc2Cl)c2c1C(=O)CCCC2 [Compound 23]
GCN5L2
  Kd: > 10000 nM
BAZ2B [2]
  Kd: 1800 nM
SMARCA4
  Kd: > 10000 nM
BRD4(1, 2)
  Kd: 160 nM
BRDT(1, 2)
  Kd: 420 nM
BRD4(short-iso.)
  Kd: 180 nM
